Data: ChEMBL document CHEMBL3639364, “Preparation method of dihydroindene amide compounds, their pharmaceutical compositions containing compounds thereof and use as protein kinases inhibitor” (2014)

Tests used:
[1] = target: Platelet-derived growth factor receptor beta (Homo sapiens, UniProt P09619); assay: (§1) Kinase buffer: 62.5 mM HEPES, pH 7.5; 0.001875% Brij-35; 12.5 mM MgCl2; 2.5 mM DTT. Stop buffer: 100 mM HEPES, pH 7.5; 0.015% Brij-35; 0.2% coating agent 3; 50 mM EDTA. Preparation of kinase solution: Kinase solution was obtained by dissolving kinases in the kinase buffer mentioned above. With regard to c-Kit kinase, the pre-activation treatments should be carried out as follows. 700 nM c-Kit, 2 mM ATP, 4 mM DTT and 10 mM MgCl2 were dissolved in kinase buffer. After being incubated at 28° C. for 15 minutes, the solution was added to the kinase buffer.
Platelet-derived growth factor receptor beta, sequence (P09619 whole entry): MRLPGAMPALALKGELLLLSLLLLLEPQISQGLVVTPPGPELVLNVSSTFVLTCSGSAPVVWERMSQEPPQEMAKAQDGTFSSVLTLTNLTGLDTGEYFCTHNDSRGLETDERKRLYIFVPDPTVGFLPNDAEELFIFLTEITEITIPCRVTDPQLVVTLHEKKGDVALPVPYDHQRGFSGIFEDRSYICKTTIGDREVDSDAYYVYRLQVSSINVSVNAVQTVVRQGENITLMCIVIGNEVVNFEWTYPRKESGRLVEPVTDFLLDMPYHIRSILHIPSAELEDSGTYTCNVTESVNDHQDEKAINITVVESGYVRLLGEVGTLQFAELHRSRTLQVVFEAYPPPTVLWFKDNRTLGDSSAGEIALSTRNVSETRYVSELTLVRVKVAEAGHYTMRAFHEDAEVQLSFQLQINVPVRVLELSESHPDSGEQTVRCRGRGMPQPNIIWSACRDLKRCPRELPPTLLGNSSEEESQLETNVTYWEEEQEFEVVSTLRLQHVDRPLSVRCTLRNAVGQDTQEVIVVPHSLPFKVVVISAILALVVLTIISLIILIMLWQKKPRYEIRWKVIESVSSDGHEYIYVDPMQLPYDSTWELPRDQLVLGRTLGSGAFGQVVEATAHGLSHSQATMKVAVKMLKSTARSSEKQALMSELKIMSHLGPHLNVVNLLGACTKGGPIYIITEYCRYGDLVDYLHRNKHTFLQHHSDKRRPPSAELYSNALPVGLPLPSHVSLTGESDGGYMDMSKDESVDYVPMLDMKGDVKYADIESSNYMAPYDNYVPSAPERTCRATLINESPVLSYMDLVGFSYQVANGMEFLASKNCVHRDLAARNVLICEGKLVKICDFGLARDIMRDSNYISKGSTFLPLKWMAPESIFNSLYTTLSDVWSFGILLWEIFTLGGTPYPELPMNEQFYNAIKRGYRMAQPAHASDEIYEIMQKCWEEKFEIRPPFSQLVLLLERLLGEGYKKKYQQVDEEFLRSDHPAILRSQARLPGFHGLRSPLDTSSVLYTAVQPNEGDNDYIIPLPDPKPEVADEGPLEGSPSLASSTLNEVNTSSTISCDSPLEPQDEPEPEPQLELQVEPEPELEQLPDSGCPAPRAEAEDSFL

[2] = target: Mast/stem cell growth factor receptor Kit (Homo sapiens, UniProt P10721); assay: as §1
Mast/stem cell growth factor receptor Kit, sequence (P10721 whole entry): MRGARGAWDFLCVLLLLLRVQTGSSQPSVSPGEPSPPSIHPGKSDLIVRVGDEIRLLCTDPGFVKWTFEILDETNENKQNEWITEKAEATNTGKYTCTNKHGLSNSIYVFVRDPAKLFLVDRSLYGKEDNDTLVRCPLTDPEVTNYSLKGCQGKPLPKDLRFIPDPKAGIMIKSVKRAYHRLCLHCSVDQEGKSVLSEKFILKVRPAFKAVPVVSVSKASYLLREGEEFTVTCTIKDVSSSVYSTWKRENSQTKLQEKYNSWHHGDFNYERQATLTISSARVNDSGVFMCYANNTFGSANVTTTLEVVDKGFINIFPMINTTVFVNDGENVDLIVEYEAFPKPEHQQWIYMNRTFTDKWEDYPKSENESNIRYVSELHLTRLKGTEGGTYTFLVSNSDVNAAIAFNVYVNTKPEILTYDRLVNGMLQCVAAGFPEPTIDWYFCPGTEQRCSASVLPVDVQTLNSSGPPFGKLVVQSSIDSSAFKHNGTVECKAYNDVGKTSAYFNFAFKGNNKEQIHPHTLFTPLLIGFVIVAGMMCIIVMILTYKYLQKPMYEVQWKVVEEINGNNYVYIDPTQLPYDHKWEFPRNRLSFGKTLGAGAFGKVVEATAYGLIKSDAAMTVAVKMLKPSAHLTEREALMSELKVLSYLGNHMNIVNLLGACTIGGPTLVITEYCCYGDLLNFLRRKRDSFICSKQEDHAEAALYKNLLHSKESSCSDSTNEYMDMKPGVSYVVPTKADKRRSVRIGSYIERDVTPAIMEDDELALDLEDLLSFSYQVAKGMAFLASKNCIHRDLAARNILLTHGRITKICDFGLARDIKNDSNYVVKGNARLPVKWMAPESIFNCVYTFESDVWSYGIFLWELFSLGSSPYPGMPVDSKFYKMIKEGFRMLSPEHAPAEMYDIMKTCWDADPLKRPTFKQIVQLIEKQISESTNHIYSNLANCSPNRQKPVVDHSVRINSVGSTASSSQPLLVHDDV

| Compound | IC50 [1] | IC50 [2] |
| --- | --- | --- |
| CCN1CCN(C2CCc3cc(C(=O)Nc4ccc(C)c(Nc5nccc(-c6cccnc6)n5)c4)ccc32)CC1 (centres undefined) | 0.015 µM | 0.026 µM |
| Cc1ccc(NC(=O)c2ccc3c(c2)CCC3N2CC[C@@H](N(C)C)C2)cc1Nc1nccc(-c2cccnc2)n1 (some centres undefined) | 0.021 µM | 0.032 µM |
